From patent US4801610A, “Phenolic ester derivatives as elastase inhibitors” (G. D. Searle & Co., priority 1987, dated 1989)

Molecular target: T1, Human Leukocyte Elastase (HLE) (Homo sapiens, UniProt P08246)
T1 sequence (P08246 30-247 limits assumed): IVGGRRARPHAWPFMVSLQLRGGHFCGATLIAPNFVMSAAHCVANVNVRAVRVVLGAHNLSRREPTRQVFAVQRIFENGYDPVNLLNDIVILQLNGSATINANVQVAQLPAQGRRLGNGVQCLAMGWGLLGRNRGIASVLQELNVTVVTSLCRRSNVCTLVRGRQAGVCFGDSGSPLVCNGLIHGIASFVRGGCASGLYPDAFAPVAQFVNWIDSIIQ
Test: Inhibition of Human Leukocyte Elastase (HLE), hydrolysis of Methoxysuccinyl-Ala-Ala-Pro-Val-nitroanilide
Type: biochemical
Conditions: tris-HCl buffer pH 8.0, absorption at 410 nm, read-out: Inhibition of Elastase IC50, [Molar]
Protocol: Several biochemical and animal model tests can be used to examine the ability of the derivatives of the invention to prevent or alleviate the harmful biological action of elastase. The biochemical assays permit direct measurement of drug controlled inhibition of elastase fragmentation of proteins. […] In these tests, protease reaction with the substrate is measured in the presence and absence of the drug to be tested. Inhibition of protease action is indicated by a decrease in the amount of substrated fragmented. The basic parameters for such biochemical assays have been reported in the literature: J. Biol. Chem., 255, 5435 (1980); Biochem. Biophys Acta., 268, 257 (1973); Anal. Biochem. 48,9 (1972); and Biochemistry, 20, 3675 (1981). EXAMPLE 42 Inhibition of Human Leukocyte Elastase (HLE) This test measures the rate of hydrolysis of Methoxysuccinyl-[…]-nitroanilide by HLE in the presence and absence of the compound to be tested. The procedure used is as follows. […] The test hydrolysis solution was then prepared by adding 850 microliters buffer, 50 microliters derivative solution, 50 microliters peptide solution and 50 microliters of HLE solution to a 1 cm. semi-micro cuvette. The cuvette was capped, slightly shaken and placed in the light chamber of a recording colorimeter where the increase in absorption at 410 nm. due to liberated nitroaniline was measured. Using this procedure, the one minute change in absorption of the test sample containing derivative was compared to the change in absorption in the absence of derivative. A 20% or more decrease in the rate of absorption was interpreted as a positive inhibition.

Row | SMILES | IC50
1 | CC(C)(C)C(=O)Oc1ccc(C(=O)c2ccccc2)cc1 [Example 1, 4-pivaloyloxybenzophenone] | 620 nM
2 | CC(C)(C)C(=O)Oc1ccc(C(=O)c2ccc(Cl)cc2)cc1 [Example 6, 4-pivaloyloxy-4'-chlorobenzophenone] | 290 nM
3 | CCCC(C)(C)C(=O)Oc1ccc(C(=O)c2ccc(OC(=O)C(C)(C)CCC)cc2)cc1 [Example 7, 4,4'-α,α-dimethylvaleroyloxybenzophenone] | 670 nM
4 | CC(C)(C)C(=O)Oc1cc(C(=O)c2ccc(OC(=O)C(C)(C)C)c(OC(=O)C(C)(C)C)c2OC(=O)C(C)(C)C)cc(OC(=O)C(C)(C)C)c1OC(=O)C(C)(C)C [Example 9, 3,4,5,4',5',6',-hexapivaloyloxybenzophenone] | 360 nM
5 | CC(C)(C)OC(=O)Oc1ccc(C(=O)c2ccc(OC(=O)OC(C)(C)C)cc2)cc1 [Example 14, 4,4'-di(t-butyloxycarbonyloxy)benzophenone] | 900 nM
6 | CC(C)(C)C(=O)Oc1ccc(Oc2ccc(OC(=O)C(C)(C)C)cc2)cc1 [Example 16, 4,4'-dipivaloyloxydiphenylether] | 460 nM
7 | C=CCc1cc(C(=O)c2ccccc2)ccc1OC(=O)C(C)(C)C [Example 26, 3-allyl-4-pivaloyloxybenzophenone] | 800 nM
8 | C=CC(C)c1cc(C(=O)c2ccccc2)ccc1OC(=O)C(C)(C)C (stereo not shown) [Example 27, 3-(1-methyl-allyl)-4-pivaloyloxybenzophenone] | 320 nM
9 | CC(C)(C)C(=O)Oc1ccc(C(=O)c2ccccc2)cc1CCCO [Example 29, 3-(3-hydroxyoropyl)-4-pivaloyloxybenzophenone] | 350 nM
10 | CC(C)(C)C(=O)Oc1ccc(Cc2ccc(OC(=O)C(C)(C)C)cc2)cc1 [Example 39, 4,4'-dipivaloyloxydiphenylmethane] | 450 nM

Stronger by IC50, values ahead:

Row | IC50 | SMILES
11 | 60 nM | CC(C)(C)C(=O)Oc1ccc(C(=O)c2ccc(OC(=O)C(C)(C)C)cc2)cc1 [Example 1a, 4,4'-dipivaloyloxybenzophenone]
12 | 55 nM | CC(C)(C)C(=O)Oc1ccc(C(=O)c2ccc(OC(=O)C(C)(C)C)cc2OC(=O)C(C)(C)C)cc1 [Example 2, 2,4,4'-tripivaloyloxybenzophenone]
13 | 84 nM | CC(C)(C)C(=O)Oc1ccc(C(=O)c2ccccc2)c(OC(=O)C(C)(C)C)c1 [Example 13, 2,4-dipivaloyloxybenzophenone]
14 | 85 nM | C=C(C)Cc1cc(C(=O)c2ccccc2)ccc1OC(=O)C(C)(C)C [Example 25, 3-methallyl-4-pivaloyloxybenzophenone]
15 | 250 nM | CC(C)C(=O)Oc1ccc(C(=O)c2ccccc2)cc1 [Example 34, 4-isobutyryloxybenzophenone]
16 | 150 nM | CC(C)C(=O)Oc1ccc(C(=O)c2ccc(OC(=O)C(C)C)cc2)cc1 [Example 40, 4,4'-diisobutyryloxybenzophenone]
